Source: ChEMBL document CHEMBL1201862, “PubChem BioAssay data set” (2004)
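Assay format: 96-well plates, 48-hour exposure. Abbreviation: GI50, concentration required for 50% inhibition of growth.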 Active and inactive are the calls of the source. Cut-off read from the data, not from the text of the source: active = GI50 up to about 1.1 µM and inactive = higher.

Columns and labels:
Test in all cases: NCI anticancer screen, dose series, 48 h
A549 = tested on: A549
PC-3 = tested on: PC-3
Malme-3M = tested on: Malme-3M
MDA-MB-231 = tested on: MDA-MB-231
MOLT-4 = tested on: MOLT-4
Hs-578T = tested on: Hs-578T
U-251 = tested on: U-251
A498 = tested on: A498
CCRF-CEM = tested on: CCRF-CEM
DU-145 = tested on: DU-145
SF-539 = tested on: SF-539
SNB-19 = tested on: SNB-19
HCT-116 = tested on: HCT-116
RPMI-8226 = tested on: RPMI-8226
OVCAR-5 = tested on: OVCAR-5
RXF 393 = tested on: RXF 393
NCI-H522 = tested on: NCI-H522
SK-MEL-28 = tested on: SK-MEL-28
MCF7 = tested on: MCF7
KM12 = tested on: KM12
OVCAR-3 = tested on: OVCAR-3
HL-60 = tested on: HL-60
OVCAR-4 = tested on: OVCAR-4
T47D = tested on: T47D
COLO 205 = tested on: COLO 205
UO-31 = tested on: UO-31
UACC-257 = tested on: UACC-257
ACHN = tested on: ACHN
MDA-MB-435 = tested on: MDA-MB-435
TK-10 = tested on: TK-10
SF-268 = tested on: SF-268
HT-29 = tested on: HT-29
HOP-62 = tested on: HOP-62
786-0 = tested on: 786-0
SW-620 = tested on: SW-620
BT-549 = tested on: BT-549
SN12C = tested on: SN12C
NCI/ADR-RES = tested on: NCI/ADR-RES
OVCAR-8 = tested on: OVCAR-8
SK-MEL-5 = tested on: SK-MEL-5
SK-MEL-2 = tested on: SK-MEL-2
CAKI-1 = tested on: CAKI-1
SF-295 = tested on: SF-295
NCI-H226 = tested on: NCI-H226
EKVX = tested on: EKVX
SR = tested on: SR
SNB-75 = tested on: SNB-75
LOX IMVI = tested on: LOX IMVI
NCI-H460 = tested on: NCI-H460
HOP-92 = tested on: HOP-92
IGROV-1 = tested on: IGROV-1
UACC-62 = tested on: UACC-62
HCT-15 = tested on: HCT-15
MDA-N = tested on: MDA-N
K562 = tested on: K562
M14 = tested on: M14
NCI-H23 = tested on: NCI-H23
SK-OV-3 = tested on: SK-OV-3
HCC 2998 = tested on: HCC 2998

## O=C(O)C1(C(=O)O)CCN(S(=O)(=O)c2ccccc2)CC1
A549
  GI50: > 100 µM (inactive)
PC-3
  GI50: > 100 µM (inactive)
Malme-3M
  GI50: > 100 µM (inactive)
MDA-MB-231
  GI50: > 100 µM (inactive)
MOLT-4
  GI50: > 100 µM (inactive)
Hs-578T
  GI50: > 100 µM (inactive)
U-251
  GI50: > 100 µM (inactive)
A498
  GI50: > 100 µM (inactive)
CCRF-CEM
  GI50: > 100 µM (inactive)
DU-145
  GI50: > 100 µM (inactive)
SF-539
  GI50: > 100 µM (inactive)
SNB-19
  GI50: > 100 µM (inactive)
HCT-116
  GI50: > 100 µM (inactive)
RPMI-8226
  GI50: > 100 µM (inactive)
OVCAR-5
  GI50: > 100 µM (inactive)
RXF 393
  GI50: > 100 µM (inactive)
NCI-H522
  GI50: > 100 µM (inactive)
SK-MEL-28
  GI50: > 100 µM (inactive)
MCF7
  GI50: > 100 µM (inactive)
KM12
  GI50: > 100 µM (inactive)
OVCAR-3
  GI50: > 100 µM (inactive)
HL-60
  GI50: > 100 µM (inactive)
OVCAR-4
  GI50: > 100 µM (inactive)
T47D
  GI50: > 100 µM (inactive)
COLO 205
  GI50: > 100 µM (inactive)
UO-31
  GI50: > 100 µM (inactive)
UACC-257
  GI50: > 100 µM (inactive)
ACHN
  GI50: > 100 µM (inactive)
MDA-MB-435
  GI50: > 100 µM (inactive)
TK-10
  GI50: > 100 µM (inactive)
SF-268
  GI50: > 100 µM (inactive)
HT-29
  GI50: > 100 µM (inactive)
HOP-62
  GI50: > 100 µM (inactive)
786-0
  GI50: > 100 µM (inactive)
SW-620
  GI50: > 100 µM (inactive)
BT-549
  GI50: > 100 µM (inactive)
SN12C
  GI50: > 100 µM (inactive)
NCI/ADR-RES
  GI50: > 100 µM (inactive)
OVCAR-8
  GI50: > 100 µM (inactive)
SK-MEL-5
  GI50: > 100 µM (inactive)
SK-MEL-2
  GI50: > 100 µM (inactive)
CAKI-1
  GI50: > 100 µM (inactive)
SF-295
  GI50: > 100 µM (inactive)
NCI-H226
  GI50: > 100 µM (inactive)
EKVX
  GI50: > 100 µM (inactive)
SR
  GI50: > 100 µM (inactive)
SNB-75
  GI50: > 100 µM (inactive)
LOX IMVI
  GI50: > 100 µM (inactive)
NCI-H460
  GI50: > 100 µM (inactive)
HOP-92
  GI50: > 100 µM (inactive)
IGROV-1
  GI50: > 100 µM (inactive)
UACC-62
  GI50: > 100 µM (inactive)
HCT-15
  GI50: > 100 µM
MDA-N
  GI50: > 100 µM (inactive)
K562
  GI50: > 100 µM (inactive)
M14
  GI50: > 100 µM (inactive)
NCI-H23
  GI50: > 100 µM (inactive)
SK-OV-3
  GI50: > 100 µM (inactive)

## Cc1nc2ccc(Cl)cc2c2c1CCO2
A549
  GI50: 63 µM (inactive)
PC-3
  GI50: 88.1 µM (inactive)
Malme-3M
  GI50: > 100 µM (inactive)
MDA-MB-231
  GI50: 43.5 µM (inactive)
MOLT-4
  GI50: 45.2 µM (inactive)
Hs-578T
  GI50: > 100 µM (inactive)
HCC 2998
  GI50: > 100 µM (inactive)
U-251
  GI50: > 100 µM (inactive)
A498
  GI50: 71 µM (inactive)
CCRF-CEM
  GI50: 57.8 µM (inactive)
DU-145
  GI50: 86.5 µM (inactive)
SF-539
  GI50: 46.5 µM (inactive)
SNB-19
  GI50: 60.4 µM (inactive)
HCT-116
  GI50: 97.5 µM (inactive)
RPMI-8226
  GI50: > 100 µM (inactive)
RXF 393
  GI50: 24.4 µM (inactive)
NCI-H522
  GI50: > 100 µM (inactive)
SK-MEL-28
  GI50: > 100 µM (inactive)
MCF7
  GI50: > 100 µM (inactive)
KM12
  GI50: > 100 µM (inactive)
OVCAR-3
  GI50: 91.6 µM (inactive)
HL-60
  GI50: 41.5 µM (inactive)
OVCAR-4
  GI50: > 100 µM (inactive)
T47D
  GI50: 88.7 µM (inactive)
COLO 205
  GI50: 83.9 µM (inactive)
UO-31
  GI50: 37.1 µM (inactive)
UACC-257
  GI50: > 100 µM (inactive)
ACHN
  GI50: 86.5 µM (inactive)
MDA-MB-435
  GI50: > 100 µM (inactive)
TK-10
  GI50: 64.7 µM (inactive)
SF-268
  GI50: 68.9 µM (inactive)
HT-29
  GI50: 95.1 µM (inactive)
HOP-62
  GI50: > 100 µM (inactive)
786-0
  GI50: > 100 µM (inactive)
SW-620
  GI50: > 100 µM (inactive)
BT-549
  GI50: 92.9 µM (inactive)
SN12C
  GI50: > 100 µM (inactive)
NCI/ADR-RES
  GI50: > 100 µM (inactive)
OVCAR-8
  GI50: 99.5 µM (inactive)
SK-MEL-5
  GI50: 68.5 µM (inactive)
CAKI-1
  GI50: 43.4 µM (inactive)
SF-295
  GI50: 75.7 µM (inactive)
NCI-H226
  GI50: 94.4 µM (inactive)
EKVX
  GI50: 17.1 µM (inactive)
SR
  GI50: > 100 µM (inactive)
SNB-75
  GI50: 69.3 µM (inactive)
LOX IMVI
  GI50: 67.5 µM (inactive)
NCI-H460
  GI50: 54.2 µM (inactive)
HOP-92
  GI50: 80 µM (inactive)
IGROV-1
  GI50: 56.8 µM (inactive)
UACC-62
  GI50: 71.9 µM (inactive)
HCT-15
  GI50: 90.2 µM
MDA-N
  GI50: 36.3 µM (inactive)
K562
  GI50: > 100 µM (inactive)
NCI-H23
  GI50: > 100 µM (inactive)
